Laboratory results taken from the supplement of paper PMC10307832.

Key:
Test in all cases: relative viability (nuclei count vs DMSO), 5 days (fraction); higher = more cells survive
Dinaciclib + Linsitinib = compound: CCc1cnn2c(NCc3ccc[n+]([O-])c3)cc(N3CCCC[C@H]3CCO)nc12 [Dinaciclib] + C[C@]1(O)C[C@@H](c2nc(-c3ccc4ccc(-c5ccccc5)nc4c3)c3c(N)nccn32)C1 [Linsitinib] (partner 1 µM)
Procedure, shortened: (§1)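 Five library-drug doses in √10 steps were combined with a fixed anchor-drug dose, or a single drug was given alone, by pin tool to lung cancer cell lines in 1536-well plates the day after seeding. Nuclei were stained and counted after 5 days. Relative viability is the nuclei count in treated wells over that in vehicle wells, taken as the median of duplicate plates.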

Dinaciclib + Tozasertib = compound: CCc1cnn2c(NCc3ccc[n+]([O-])c3)cc(N3CCCC[C@H]3CCO)nc12 [Dinaciclib] + Cc1cc(Nc2cc(N3CCN(C)CC3)nc(Sc3ccc(NC(=O)C4CC4)cc3)n2)n[nH]1 [Tozasertib] (partner 0.1 µM)
Procedure, shortened: as §1

Dinaciclib + Dasatinib = compound: CCc1cnn2c(NCc3ccc[n+]([O-])c3)cc(N3CCCC[C@H]3CCO)nc12 [Dinaciclib] + Cc1nc(Nc2ncc(C(=O)Nc3c(C)cccc3Cl)s2)cc(N2CCN(CCO)CC2)n1 [Dasatinib] (partner 0.075 µM)
Procedure, shortened: as §1

Dinaciclib + Vorinostat = compound: CCc1cnn2c(NCc3ccc[n+]([O-])c3)cc(N3CCCC[C@H]3CCO)nc12 [Dinaciclib] + O=C(CCCCCCC(=O)Nc1ccccc1)NO [Vorinostat] (partner 1 µM)
Procedure, shortened: as §1

Dinaciclib + Olaparib = compound: CCc1cnn2c(NCc3ccc[n+]([O-])c3)cc(N3CCCC[C@H]3CCO)nc12 [Dinaciclib] + O=C(c1cc(Cc2n[nH]c(=O)c3ccccc23)ccc1F)N1CCN(C(=O)C2CC2)CC1 [Olaparib] (partner 8 µM)
Procedure, shortened: as §1

Row | Cell Line | relative viability (Dinaciclib + Linsitinib; first compound 0.009487 µM) | relative viability (Dinaciclib + Linsitinib; first compound 0.03 µM) | relative viability (Dinaciclib + Linsitinib; first compound 0.09487 µM) | relative viability (Dinaciclib + Linsitinib; first compound 0.3 µM) | relative viability (Dinaciclib + Tozasertib; first compound 0.009487 µM) | relative viability (Dinaciclib + Tozasertib; first compound 0.03 µM) | relative viability (Dinaciclib + Tozasertib; first compound 0.09487 µM) | relative viability (Dinaciclib + Tozasertib; first compound 0.3 µM) | relative viability (Dinaciclib + Dasatinib; first compound 0.009487 µM) | relative viability (Dinaciclib + Dasatinib; first compound 0.03 µM) | relative viability (Dinaciclib + Dasatinib; first compound 0.09487 µM) | relative viability (Dinaciclib + Dasatinib; first compound 0.3 µM) | relative viability (Dinaciclib + Vorinostat; first compound 0.009487 µM) | relative viability (Dinaciclib + Vorinostat; first compound 0.03 µM) | relative viability (Dinaciclib + Vorinostat; first compound 0.09487 µM) | relative viability (Dinaciclib + Vorinostat; first compound 0.3 µM) | relative viability (Dinaciclib + Olaparib; first compound 0.009487 µM) | relative viability (Dinaciclib + Olaparib; first compound 0.03 µM) | relative viability (Dinaciclib + Olaparib; first compound 0.09487 µM) | relative viability (Dinaciclib + Olaparib; first compound 0.3 µM)
1 | NCI-H1793 | 0.818 | 0.187 | 0.119 | 0.128 | 0.284 | 0.13 | 0.131 | 0.103 | 0.372 | 0.2 | 0.0986 | 0.13 | 0.599 | 0.25 | 0.107 | 0.158 | 0.64 | 0.139 | 0.119 | 0.153
2 | NCI-H1915 | 1.06 | 0.279 | 0.136 | 0.127 | 0.303 | 0.149 | 0.13 | 0.115 | 0.301 | 0.149 | 0.121 | 0.123 | 0.534 | 0.291 | 0.116 | 0.104 | 0.202 | 0.108 | 0.112 | 0.0974
3 | NCI-H1944 | 1.36 | 0.613 | 0.192 | 0.225 | 0.233 | 0.134 | 0.132 | 0.127 | 0.267 | 0.117 | 0.117 | 0.13 | 0.522 | 0.172 | 0.11 | 0.133 | 0.395 | 0.126 | 0.182 | 0.108
4 | NCI-H1975 | 0.632 | 0.265 | 0.13 | 0.141 | 0.927 | 0.416 | 0.082 | 0.071 | 0.483 | 0.263 | 0.0967 | 0.0711 | 0.677 | 0.39 | 0.144 | 0.15 | 0.702 | 0.26 | 0.151 | 0.114
5 | NCI-H1993 | 0.69 | 0.586 |  | 0.518 | 0.505 | 0.623 | 0.595 | 0.565 | 0.637 | 0.509 | 0.481 | 0.576 | 0.651 | 0.281 | 0.42 | 0.308 | 1.12 | 0.755 | 0.371 | 0.424
6 | NCI-H2009 | 1.12 | 0.283 | 0.105 | 0.104 | 0.599 | 0.231 | 0.112 | 0.106 | 0.199 | 0.0887 | 0.072 | 0.0636 | 0.806 | 0.202 | 0.0818 | 0.0781 | 0.584 | 0.254 | 0.0848 | 0.0797
7 | NCI-H2023 | 0.442 | 0.0999 | 0.0724 | 0.0763 | 0.446 | 0.0768 | 0.0628 | 0.0577 | 0.393 | 0.0627 | 0.0546 | 0.0553 | 0.678 | 0.08 | 0.0556 | 0.0518 | 0.29 | 0.0582 | 0.0542 | 0.0574
8 | NCI-H2085 | 0.94 | 0.188 | 0.176 | 0.202 | 0.802 | 0.373 | 0.3 | 0.308 | 0.223 | 0.184 | 0.218 | 0.229 | 0.907 | 0.503 | 0.221 | 0.214 | 0.838 | 0.321 | 0.257 | 0.263
